# How the values were obtained:
# intracellular sucrase = test system: T1, intracellular sucrase; test: colorimetric glucose release ([…] nm), Lineweaver-Burk; format: biochemical, Leishmania donovani; details: 50 mM sodium acetate, pH 6.0, 30°C, 30 min; 0.4-5.0 mM sucrose; purified enzyme
# T1 construct: native purification from promastigote cell-free extract; ~56 kDa subunit (SDS-PAGE), ~112 kDa native, proposed homodimer; gene not identified
# [1] = biological target: intracellular sucrase of Leishmania donovani promastigotes (Leishmania donovani (endogenous in promastigotes, strain MOHM/IN/1978/UR6)); test: SEC; Sephacryl S-200 column (120 x 1 cm), Buffer A (50 mM Tris-HCl, pH 7.4), 22 mL/hr; ammonium sulfate fraction of cell-free extract, sucrase followed by activity; native size from calibration graph compared with the subunit size in 10% SDS-PAGE
Molecule,Km (intracellular sucrase),stoichiometry N [1]
OC[C@H]1O[C@@](CO)(O[C@H]2O[C@H](CO)[C@@H](O)[C@H](O)[C@H]2O)[C@@H](O)[C@@H]1O [sucrose],1610 µM,
intracellular sucrase of Leishmania donovani promastigotes (enzyme),,2

# From PMC4848734, “Purification and Characterization of a Novel Intracellular Sucrase Enzyme of Leishmania donovani Promastigotes” (Biochemistry Research International, 2016)
